Drawing on PMC9104798, “Plant Alkaloid Tetrandrine Is a Nuclear Receptor 4A1 Antagonist and Inhibits Panc-1 Cell Growth In Vitro and In Vivo” (International Journal of Molecular Sciences, 2022), this text covers Kd for one compound.

The target in the test is nuclear receptor 4A1 (NR4A1) (Homo sapiens, UniProt P22736). Briefly: tryptophan fluorescence quenching with NR4A1 LBD ([…]). The test is classed as binding.
Chain of nuclear receptor 4A1 (NR4A1) (P22736 351-598 limits assumed): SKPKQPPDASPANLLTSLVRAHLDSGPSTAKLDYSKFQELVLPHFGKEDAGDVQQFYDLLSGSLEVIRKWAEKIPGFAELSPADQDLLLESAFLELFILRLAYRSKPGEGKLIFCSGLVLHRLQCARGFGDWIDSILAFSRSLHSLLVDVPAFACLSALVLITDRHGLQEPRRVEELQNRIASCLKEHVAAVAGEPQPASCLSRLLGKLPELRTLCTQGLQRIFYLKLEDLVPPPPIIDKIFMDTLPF

As for `COc1ccc2cc1Oc1ccc(cc1)C[C@H]1c3cc(c(OC)cc3CCN1C)Oc1c(OC)c(OC)cc3c1[C@H](C2)N(C)CC3` [TTD, tetrandrine], the Kd (as a rule, the equilibrium constant for the complex coming apart) is 10.6 µM.
